In series [1] the test system is light-induced retinal damage. As to conditions: rats; cited from earlier work.
A further series deals with radiation cataract. The conditions noted are these: Long-Evans rats, 15 Gy whole head gamma irradiation; cited from earlier work.
For the next series, the system named is diabetic cataract. The conditions noted are these: diabetic rats; cited from earlier work.
Series [2] relates to ARPE-19 retinal pigmented epithelial cells. Briefly: Zinquin analysis of cellular labile zinc after exposure to Aβ1-42/Zn complex. The series is classed as cell-based, human. As to conditions: ARPE-19, 10 μM drug. How it is done: (§1) The ability of MFAOs to release zinc from amyloid beta/zinc complex was investigated using […] from American Peptide Company, Inc. (Vista, Calif.). The Aβ1-42/Zn complex was prepared as follow. ZnSO4 solution (200 μM) and Aβ1-42 (200 μM) were mixed together and incubated at 37° C. After 48 hr incubation, the mixture was centrifuged at 14000×g, 3 min to pellet the aggregated Aβ1-42. The aggregated Aβ1-42 was then resuspended in water or 200 μM of drugs. The complex was diluted with Hank's Balanced Saline Solution (HBSS) to give a final 10 μM concentration for each component. This complex was then used in the following studies employing human SH-SY5Y neuroblastoma and ARPE-19 pigmented epithelial cells. The studies were repeated 2-4 times.
(§2) Human SH-SY5Y neuroblastoma cells were seeded into 8-well microscope plates (BD Falcon, 800μ-slides), and the cells were incubated in EMEM-F12 media containing 10% FBS at 37° C. under a 5% CO2 atmosphere. Once the cells were approximately 80% confluent in each well, the media was removed, and the cells were washed with phosphate buffered saline (PBS). […] The zinquin fluorescence was then measured in the fixed cells by confocal fluorescence microscopy using a DAPI (4′,6-diamidino-2-phenylindole) DAPI filter set to assess the cellular compartmentalization of zinc. […]

In the next series the test system is ARPE-19 RPE cells. Briefly: Mitochondrial viability/toxicity, rhodamine 123 staining with or without MnCl2. The series is classed as cell-based, human. The conditions noted are these: ARPE-19, 1 mM drug, 1 mM MnCl2.
For series [3], the system named is SH-SY5Y neuroblastoma cells. The series is described as above. The series is classed as cell-based, human. As to conditions: 1 mM drug, 1 mM MnCl2. Here is the method:
The laser dye rhodamine 123 is shown to be a specific probe for the localization of mitochondria in living cells. Because of its selectivity for mitochondria, this stain can be used to probe alterations in mitochondria induced by drugs. Therefore, studies were conducted to determine whether MFAOs can adversely alter mitochondrial function through their ability chelate transition metals.
Human SH-SY5Y neuroblastoma cells were seeded into 8-well microscope plates (BD Falcon, 800μ-slides), and the cells were incubated in EMEM-F12 media containing 10% FBS at 37° C. under a 5% CO2 atmosphere. Once the cells were approximately 80% confluent in each well, the media was removed and the cells were washed with PBS. The cells were then pre-incubated for 1 hour at 37° C. under a 5% CO2 atmosphere with 200 μL of HBSS medium without FBS containing drug JHX-1, -4, -5, -8, HK-2, -4, -9, -11, or Clioquinol dissolved in DMSO, so that final drug concentrations of 1 mM in 4% DMSO were achieved. Then MnCl2 was added to the appropriate cells groups to give a final concentration of 1 mM, and the groups were cultured for an additional 2 hours. After the […] exposure to manganese, the media was removed and the cells were washed with PBS. The cells were then stained with 100 μL of the fluorescent dye rhodamine 123 (Rh123) (20 μM) and Hoechst 33342 (8 μM) per well at 37° C., 5% CO2 for 30 min. […]

The subject of series [4] is SH-SY5Y neuroblastoma cells. Put plainly: Zinquin analysis of cellular labile zinc after exposure to Aβ1-42/Zn complex. The series is classed as cell-based, human. The conditions noted are these: 10 μM drug. Here is the method: as §1, §2
For series [5], the system named is SH-SY5Y neuroblastoma cells. Briefly: Cell viability study, MTS Cell Titer 96 Aqueous One Solution assay. As to conditions: 1 mM compound in 0.16% DMSO.
Procedure: (§3) The in vitro cell viability studies were conducted as previously described using SH-SY5Y neuroblastoma cells (ATCC) and cultured according to ATCC procedures in 1:1 Eagles minimum essential medium with Earle's balanced salt solution and Ham's F12 (EMEM-F12) media containing (10% fetal bovine serum (FBS)) at 37° C. under a 5% CO2 atmosphere. Cell viability studies were conducted over a 24 hour period in 96-well plates using the Cell Titer 96® Aqueous One Solution Cell Proliferation Assay (MTS, Promega, Madison, Wis.) with 1 mM of each compound or clioquinol (PBT1) dissolved in 0.16% DMSO. […] This is a colorimetric method for determining the number of viable cells in proliferation or cytotoxicity assays where the One Solution contains MTS (3-(4,5-dimethylthiazol-2-yl)-5-(3-carboxymethoxyphenyl)-2-(4-sulfophenyl)-2H-tetrazolium), in the presence of phenazine methosulfate (PMS). The MTS compound is bioreduced by cells into a colored formazan product and, as measured by the amount of 490 nm absorbance, is directly proportional to the number of living cells in culture. […] The protective effect of these compounds against H2O2 and hydroxyl radical generated by the Fenton reaction were examined.
The test system of series [6] is SH-SY5Y neuroblastoma cells. Briefly: Protective effect against H2O2 and Fenton-generated hydroxyl radical, MTS cell viability. The series is classed as cell-based, human. The conditions noted are these: versus DMSO control.
Procedure: as §3

As to `CN(C)S(=O)(=O)N1CC(=O)N(c2ncc(O)cn2)C(=O)C1` [JHX-4], in series [1], the “protection against light-induced retinal damage” value is “protects rats against light-induced retinal damage”. The “cataract formation after irradiation” value in the series on radiation cataract is on record as “significantly delayed cataract formation”. Moreover, the progression of cataracts entry in the series with diabetic cataract is given as “delayed the progression of cataracts”.

With `Oc1c(I)cc(Cl)c2cccnc12` [clioquinol], the “labile zinc (zinquin staining) in presence of aggregated Aβ1-42/Zn complex” value in series [2] and in series [4] was “maintain labile zinc levels” each time. Further, the “loss of rhodamine 123 staining after MnCl2” value (in the series with ARPE-19 RPE cells; in series [3]) was “not observed” each time. For the same molecule, the “decrease in 24 hr cell viability compared to DMSO treated cells” value in series [5] amounted to 50%. Besides, the “cell viability in the Fenton reaction” value in series [6] is given as “lower than DMSO control”.

(Values after patent US8877766B2, “Neuroprotective multifunctional antioxidants and their monofunctional analogs” (priority 2013, dated 2014).)
